How the values were obtained:
Format in all cases: in vivo, human
[1] = Fasting blood glucose (FBG), Accu-Chek, T2DM patient on Glibenclamide with inulin (Examples 1 and 3)
Method: (§1) Other similar devices can also be used.
The efficacy of inulin on Glibenclamide therapy was investigated. Several years prior to inulin combination therapy, patient's FBG fluctuated drastically and was uncontrolled around 10 mmol/L. Their cholesterol and triglyceride were also very high (Table 2). FIG. 1 depicts the monthly FBG average at indicated time points. Conditions of treatments are described below: • January 2007: Patient's endocrinologist increased the Glibenclamide dose from 2×5 mg to 3×5 mg per day. […] For the first time they were diagnosed with Atrial fibrillation and prescribed with Warfarin. […] Low FBG assisted in excellent recovery. • March 2009: Inulin supply became unavailable.
The patient, as described above in Example 1, was switched over to inulin (Orafti), and combination therapy with Glibenclaminde (5 mg, three times daily) continued following a similar protocol as described above except that the patient received 15 gr/day of inulin (Orafti).

[2] = FBG, HA1c and lipid profiles by independent pathology laboratory, Example 1 patient (Table 2); settings: Nov. 5, 2006; prior to inulin
Description: as §1

[3] = FBG, T2DM patient on Gliclazide with inulin (Example 2)
Method: as §1
Another patient, who was under Gliclazide therapy (30 mg, once daily) for nearly a decade with uncontrolled blood glucose levels above 9 mmol/L, also began the combination therapy with inulin (JLS). Various blood parameter measurements were as described in Example 1.

In the case of `COc1ccc(Cl)cc1C(=O)NCCc1ccc(S(=O)(=O)NC(=O)NC2CCCCC2)cc1` [Glibenclamide], the “average FBG” value ([1]; February 2007, Glibenclamide 3×5 mg per day) is reported as 6 mmol/L, the “average FBG” value ([1]; January 2007, Glibenclamide 2×5 mg per day) is reported as 7.8 mmol/L and the FBG ([1]; by October 2009, inulin unavailable from March 2009) is reported as roughly 7.5 mmol/L. For the same compound, the FBG ([1]; several years prior to inulin combination therapy, uncontrolled) was “around 10 mmol/L”, the Cholesterol [2] was 6.2 mmol/L and the “Fasting Glucose” value [2] was 10 mmol/L. The Triglyceride [2] was 4 mmol/L.
For `Cc1ccc(S(=O)(=O)NC(=O)NN2CC3CCCC3C2)cc1` (stereo not drawn) [Gliclazide], the blood glucose levels ([3]; Gliclazide 30 mg once daily for nearly a decade, uncontrolled) was “above 9 mmol/L” and the FBG level ([3]; Gliclazide 30 mg once daily, before inulin, ± SEM) was 9.4 ± 1.82 mmol/L.
